One data set relates to HeLa. Kind of data set: MTT assay, HeLa. Type of data set: cell-based. Conditions: Homo sapiens, HeLa, 72 h, read-out: IC50 ± SD Cervical HeLa. The method, then: Table S1. The antiproliferative efficacy of the DML1-DML12 compounds on the proliferation of cervical cancer cell line.
Figure S1. The efficacy of DML6 in HeLa cancer cells. The cell-viability curve produced by HeLa cells treated with
vehicle (0 μM), 5 or 10 μM of DML6 after 72 h of incubation. Cell survival was determined using the MTT assay. The
IC50 values are represented as the means ± SD of three independent experiments performed in triplicate. […]
Background: Tetrazolium assays rely on reduction of a dye to a coloured formazan, in cell work by metabolically active cells.

In data set [1] the test system is OV2008 cells. As to the kind of experiment: IncuCyte Cytotox green assay. The data set is classed as cell-based. Particulars: OV2008, up to 72 h, vs vehicle. An excerpt: The IncuCyte cytotox green reagent (Catalog # 4633, Essence BioScience, Ann Arbour, MI, USA) was used for real time quantification of dead OV2008 cells as previously described. This dye will only penetrate into cells with non-intact membranes (dead or non-viable cells). As the cells die, the increase in cell membrane permeability allows the reagent to enter the nucleus and bind to DNA, which emits green fluorescence at an excitation maximum of 491 nm and emission maximum of 509 nm. OV2008 cells were seeded (100 µL/well) in a 96-well plate and incubated overnight. The following day, DML6 (0.1–100 μM) was prepared at 3X the final assay concentrations in diluted IncuCyte™ Cytotox Reagent and added to each well (50 µL/well). The cells were immediately placed in the IncuCyte® S3 Live-Cell Analysis System (Essen BioScience, Ann Arbor, MI, USA) and images were taken every 2 h up to 72 h and analyzed using the integrated IncuCyte S3 software version 2020B (Essen BioScience, Ann Arbor, MI, USA).

In data set [2] the test system is OV2008 cells. Kind of data set: Cell cycle analysis, flow cytometry with propidium iodide. The data set is classed as cell-based. Particulars: for percentage of cells in the G2 phase / percentage of cells in the G1 phase: 24 h; for percentage of cells in the G2 phase: vehicle 4.18%; for percentage of cells in the G1 phase: vehicle 85.99%. How it is done: Cell cycle analysis was conducted using flow cytometry cell cycle analysis with propidium iodide (PI) as previously described. OV2008 cells were plated into 6-well plates at 2.5 × 10^5 cells/well. The cells were incubated with the vehicle, 5 or 20 μM of DML6 for 24 h. The next day, the cells were trypsinized with 0.25% trypsin, 2.21 mM EDTA, 1X, washed, counted, and resuspended in 1ml of ice-cold PBS. The cells were then stained with 200 µL (50 µg/ml stock solution propidium iodide (PI) dye and incubated for at least 15 min. The distribution of the cells in each phase of the cell cycle after incubation with the vehicle or DML6 was determined using A BD FACSCanto™ flow cytometer (BD Biosciences, Becton-Dickinson, San Jose, CA, USA) and analyzed using FCS Express 7 plus De Novo software (Glendale, CA, USA).
(In general: In flow cytometry, cells or beads pass a laser one at a time.)

Data set [3] relates to OV2008 cells. Kind of data set: Nuclear staining with Hoechst dye. Type of data set: cell-based. How it is done: Nuclear fragmentation and chromatin condensation were detected using the Hoechst 33258 DNA dye as previously described. OV2008 cells were seeded at a density of 250,000 cells/mL in 6-well plates and incubated overnight at 37 °C. The next day, the cells were incubated with the vehicle (DMEM media with 10% FBS and 1% penicillin and streptomycin), 5 or 20 μM of DML6 and further incubated overnight at 37 °C. The cells were fixed and stained with the Hoechst 33258 DNA dye for at least 30 min. The stained nucleus fluorescence was detected using an EVOS digital microscope at wavelengths of 460–490 nm.

A further data set has as its system Bcl-2. Kind of data set: Western blot, Bcl-2. The data set is classed as cell-based. Conditions: OV2008, 20 μM, 24 h, vs vehicle. The method, then: (§1) The OV2008 cells were lysed to obtain total cellular protein fractions using Mammalian Protein Extraction Reagent (Catalog # 78501, M-PER™, Thermo Fisher Scientific, Waltham, MA, USA). The cells were seeded in […] at a density of 1 × 10^6 and incubated with 5 or 20 µM of DML6 or 1 µM of doxorubicin (Catalog # T1-2-, TargetMol, Boston, MA, USA) (a positive control) for 24 h. The following day, the cells were washed with ice-cold PBS, scraped using a cell scrapper and collected in Eppendorf tubes. The tubes were centrifuged at 1500 RPM at 4 °C for 5 min. The solution was discarded and replaced with 70 µL of the cell lysis buffer (M-PER reagent, 100 mM Sodium Orthovanadate (NaOV) at a final concentration of 2.5 mM) and a 100X protease inhibitor cocktail (Catalog # P8340, Sigma-Aldrich, St. Louis, MO, USA, final concentration of 1X, containing of aprotinin, bestatin, E-64, leupeptin and pepstatin). Thirty minutes later, the resulting solution was centrifuged at 10,000 RPM at 4 °C for 5 min and the supernatant was collected. The protein concentration of the cell extracts was determined using the bicinchoninic acid (BCA) (Catalog # 786-570, G-Biosciences, Saint Louis, MO, USA) quantification assay. […] Finally, the amount of protein in each blot was quantified using the Image J software (NIH, Bethesda, MD, USA). All data were calculated as a ratio to β-actin.
For orientation: Immunoblotting shows a protein as a band on a membrane.

For a further data set, the system named is Bax. As to the kind of experiment: Western blot, Bax. Conditions: OV2008, 5 and 20 μM, 24 h, vs vehicle. Type of data set: cell-based. How it is done:
as §1

Data set [4] concerns Chinese hamster ovary cells (CHO).
Protocol: The concentration of the tested compounds that produced a 50% inhibition of cell growth (IC50) was determined.
A panel of cancer cell lines, including cervical (OV2008 and HeLa), breast (MDA-MB-231), lung (A549) and colon (LOVO), prostate (DU145), human embryonic kidney cells (HEK293), human colon fibroblast cells (CRL1459), and Chinese hamster ovary cells (CHO), were grown as adherent monolayers in flasks containing Dulbecco’s modified Eagle medium (DMEM), supplemented with 10% fetal bovine serum (FBS) and 1% penicillin and streptomycin, in a humidified incubator with 5% CO2 at 37 °C.
The cells were seeded evenly (180 μL/well) in 96-well plates, at a density of 3000–5000 cells/well and incubated with serial dilutions of the compounds ranging from 0.1 to 100 μM. […] Cytation™ 5 and Cytation™ 7 multi-mode detector (Bio Tek Instruments, Winooski, VT, USA) was used to determine the absorbance readings at a wavelength of 570 nm. The IC50 values were determined based on 3 separate experiments, with each experiment carried out in triplicate. The selectivity of the compounds was determined by comparing their IC50 values in cervical cancer compared to the normal epithelial cell lines, HEK293, CHO, and CRL1459.

In general, IC50 refers to the concentration that inhibits the measured activity by half. As to `CN(C)c1ccc(/C=C/C(=O)c2ccc(Cl)cc2Cl)cc1` [DML6, (E)-1-[2,4-dichlorophenyl]-3-(4-(dimethylamino)phenyl)prop-2-en-1-one], the IC50 with HeLa is 9.08 ± 0.69 µM. For the same molecule, the “Cytotox green fluorescent signal (dead cells) over time” value in the data set with OV2008 cells [1] is on record as “increased significantly”. In addition, the “percentage of cells in the G2 phase” value with OV2008 cells [2] (5 μM) was 42.56%; in the data set with OV2008 cells [2] (20 μM) it was 59.96%. Besides, the “percentage of cells in the G1 phase” value with OV2008 cells [2] (5 μM) turned out to be 16.01%; in the data set with OV2008 cells [2] (20 μM) it was 27.84%. In addition, the “change of percentage of cells in the sub G1 phase” value in the data set with OV2008 cells [2] (5 or 10 µM, vs vehicle) is “neither 5 or 10 µM of DML6 significantly altered”. For the same molecule, the nuclear morphology result with OV2008 cells [3] (5 μM, 24 h) was “increased the number of cells with condensed, fragmented nuclei”; in the data set on OV2008 cells [3] (20 µM) it was “decondensed, multiple micronuclei and some single, highly condensed nuclei”. The “percentage of apoptotic nuclei” value in the data set on OV2008 cells [3] (5 and 20 μM, vs vehicle) is “significantly higher”. Moreover, the “levels of the anti-apoptotic protein Bcl-2” value with Bcl-2 was “significantly decreased”. For the same molecule, in the data set on Bax, the “expression of the pro-apoptotic protein Bax” value is “significantly increased the expression”. In addition, in data set [4], the “cytotoxicity in normal cells, CHO” value is on record as “did not produce significant cytotoxicity”.

For the origin of these results see publication PMC8306139, “A Novel Dialkylamino-Functionalized Chalcone, DML6, Inhibits Cervical Cancer Cell Proliferation, In Vitro, via Induction of Oxidative Stress, Intrinsic Apoptosis and Mitotic Catastrophe” (Molecules, 2021).
